Data on four compounds can be found in patent publication US7279314B2, “Chemical substance having morphogenetic and growth-accelerating activities” (Marine Biotechnology Institute Co., Ltd., priority 2002, dated 2007).

Data set [1] in a line: Solubility (physicochemical properties). The note with it: for Solubility in hydrated solvent: aqueous methanol or aqueous acetonitrile, percentage range given per compound; for Solubility in less-polar organic solvents: such as hexane or chloroform (Me1H1W4: chloroform and toluene).
Data set [2] has as its system Monostroma oxyspermum. As to the kind of experiment: Minimum effective concentration (MEC) for thallus formation in Monostroma oxyspermum culture. It counts as cell-based. As for the experimental part: One ml of modified ASP7 medium was added in the wells of the first row of 48-well microtitre plates (Iwaki, hereafter abbreviated as 48-MTP) and 0.9 ml of modified ASP7 medium was added in the wells of the second and subsequent rows. Eleven μl of the active substance fraction of the target was added individually and mixed well by pipetting in the wells on the first row, followed by adding 100 μl of this mixed solution to the wells on the next row. By repeating this procedures subsequently for 8 to 18 times for each fraction, a ten-fold serial dilution can be prepared in 8 to 18 steps. 100 μl that remained in solution in the wells on the last row was discarded. Here, 100 μl of Monostroma oxyspermum culture medium was diluted subsequently so that the final cell concentration of 10 to 20 cells per 1 ml, was delivered to all wells of 48-MTP to bring the total amount of solution to 1 ml. […] The MEC is used as an index for isolation.
Similar to the case of Example 1, isolated and purified novel chemical substance 1 was serially diluted in 16 steps starting with the final concentration of 1 μg/ml. At this time, the Monostroma oxyspermum cell number was adjusted to be 20 cells per 1 ml of the medium. Fresh pipet tips were used for each step dilution. Three sets of these series were prepared and were cultivated for 3 days under the same condition as Example 1. […] Based on this, the MEC of the novel chemical substance 1 will be as follows.
Similar to Example 5, the MEC of the novel chemical substance 1 and its derivatives are measured and the results are shown below.

Data set [3] deals with Ulva pertusa. Nature of the data set: Culturing experiment of Ulva pertusa. It counts as cell-based. The note with it: 1 ng/ml in ASP7 medium, vs control group without addition (FIG. 15). As for the experimental part:
(§1) Spores obtained from the Ulva pertusa and Enteromorpha intestinalis collected from Miho Shimizu-city, Shizuoka were washed using their phototaxis activity in the ASP7 medium supplemented with the antibiotics, and then were transferred to rectangular petri dishes filled with sterilized covered glasses and aseptized for 5 days. When the free-living cells had attached to the cover glasses and had start growing, each cover glass was placed in each hole of 6-MTP, followed by adding 10 ml of the ASP7 medium not supplemented with antibiotics. For a test group, the novel chemical substance 1 was added to result in 1 ng/ml and for the control group, nothing was added. They were incubtaed for 7 days under the same conditions as in Example 1. […], the cover glasses of the test group and control section were transferred to the culture test tube containing the medium prepared under the same condition to further incubate another 7 days. […] In addition, the ASP7 medium supplemented with antibiotics is an ASP medium, having the following composition and containing 2% antibiotics.

Data set [4] has as its system Enteromorpha intestinalis. As to the kind of experiment: Culturing experiment of Enteromorpha intestinalis. It counts as cell-based. The note with it: 1 ng/ml in ASP7 medium, vs control group without addition (FIG. 16). As for the experimental part:
as §1

Data set [5] can be described thus: Stability of the substances. The data set is classed as physicochemical.
Where [6] appears, read: thallus formation of Monostroma oxyspermum, measured similar to Example 5.

As for `CC1(C)CCC[C@]2(C)C3C[C@H]4c5ccc(CO)nc5CO[C@@]4(CO)O[C@]3(C)CC[C@@H]12` (stereo partly shown) [Me1H1W4], in data set [1], the “Solubility in hydrated solvent” value is listed as “soluble”, the “Solubility in less-polar organic solvents” value is “soluble” and the Solubility in water entry was “Poorly soluble”. Moreover, the “Solubility in non-polar solvent” value in data set [1] (such as hexane) is “hardly soluble”.
Take `CC1(C)CCC[C@]2(C)C3CC(c4ccc(CO)nc4CO)=C(CO)O[C@]3(C)CC[C@@H]12` (stereo partly shown) [Me1H1]: in data set [2] (setting [6]), the MEC result is reported as “No activity”. For the same compound, in data set [1], the “Solubility in hydrated solvent” value is given as “soluble”, the “Solubility in less-polar organic solvents” value is “soluble” and the Solubility in water entry is “hardly soluble”.
With `COC(=O)C1=C(c2ccc(C(=O)OC)nc2C(=O)OC)CC2[C@@](C)(CC[C@H]3C(C)(C)CCC[C@]23C)O1` (stereo partly shown) [Me1], the MEC in data set [2] (setting [6]) was 10^−4 μg/ml. Besides, the “Solubility in DMSO” value in data set [1] (DMSO) was “hardly soluble”. Moreover, in data set [1], the “Solubility in hydrated solvent” value is “soluble”, the “Solubility in less-polar organic solvents” value is given as “hardly soluble” and the Solubility in water entry was “hardly soluble”.
As to `CC1(C)CCC[C@]2(C)C3CC(c4ccc(C(=O)O)nc4C(=O)O)=C(C(=O)O)O[C@]3(C)CC[C@@H]12` (stereo partly shown) [Novel Chemical Substance 1], the “Development and thallus formation” value is “normal development and thallus formation were observed” in data set [3]; “normal development and thallus formation were observed” in data set [4]. The MEC in data set [2] (cultivated for 3 days, 20 cells per 1 ml, thallus formation at 12-step ten-fold dilution from 1 μg/ml) is reported as 1 ag/ml; in data set [2] (setting [6]), 10^−12 μg/ml. Also, the “MEC after 10 days cultivation” value in data set [2] (cultivated for 10 days, six-step dilution from 1 μg/ml) is 1 pg/mL. In addition, the Thallus state entry in data set [2] (seven-step dilution, final concentration 1×10^−7 μg/ml, cultivated for 10 days (FIG. 13)) is on record as “the disrupted thallus is observed”; in data set [2] (six-step dilution, final concentration 1×10^−6 μg/ml, cultivated for 10 days (FIG. 14)) it was “The thallus was maintained without being collapsed”. For the same compound, the Stability entry in data set [5] (general statement) is “quite stable”; in data set [5] (substance induced under alkali condition), “relatively stable”.
